Molecular target: S-adenosylmethionine synthase isoform type-2 (Homo sapiens) (UniProt P31153)
Assay: PubChem AID 508
Conditions: recombinant MAT2A, DSF SYPRO orange Tm shift; at 10 µM; protein 2 µM; buffer 25 mM HEPES; pH 7.5; 75mM NaCl; 100uM ATPgammaS; Adenosine 5'-[gamma-thio]triphosphate tetralithium salt; hits give high values

S-adenosylmethionine synthase isoform type-2 (Homo sapiens), sequence (P31153 whole entry, looked up, canonical isoform): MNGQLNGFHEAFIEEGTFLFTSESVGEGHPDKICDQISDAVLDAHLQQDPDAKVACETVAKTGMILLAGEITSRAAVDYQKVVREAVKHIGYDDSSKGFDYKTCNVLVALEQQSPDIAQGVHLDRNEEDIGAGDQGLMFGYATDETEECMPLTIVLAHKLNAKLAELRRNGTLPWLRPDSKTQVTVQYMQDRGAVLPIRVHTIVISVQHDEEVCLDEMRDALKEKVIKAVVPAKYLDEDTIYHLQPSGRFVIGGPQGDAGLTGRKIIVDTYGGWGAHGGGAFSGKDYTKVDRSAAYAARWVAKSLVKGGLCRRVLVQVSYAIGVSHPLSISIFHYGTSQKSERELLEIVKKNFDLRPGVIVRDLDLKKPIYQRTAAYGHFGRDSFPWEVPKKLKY

Tm shift: 2.1 Celsius
SMILES: CSCCC(N)C(=O)O (stereo unspecified)

Source: PubChem BioAssay AID508
